Consider five molecules from US20260022142A1, “MACROCYCLIC IMMUNOMODULATORS” (Bristol-Myers Squibb Company, priority 2022, published 2026).

As a reminder, the IC50 is the concentration that gives 50% inhibition.

SMILES strings stand for the structures. Numbered stars: 1 amine (or outer) side, 2 acyl side, 3 side chain; on linkers, the order of the positions; unused ones are H or OH. Bridge positions count the residues as written; N and C are the ends. Square brackets hold non-standard residues; d marks the D form. Peptide text beside a SMILES is read from it. * marks the point of attachment. Phe(3-CF3) = N[C@@H](Cc1cccc(C(F)(F)F)c1)C(=O)O; Ala(morpholin-4-yl) = N[C@@H](CN1CCOCC1)C(=O)O; Phe(4-COOH) = N[C@@H](Cc1ccc(C(=O)O)cc1)C(=O)O; Bip = N[C@@H](Cc1ccc(-c2ccccc2)cc1)C(=O)O; Phe(3-Me) = Cc1cccc(C[C@H](N)C(=O)O)c1; βAsp = O=C(O)[C@H](CC(=O)[*:2])N[*:1]; NH(CH2)12COOH = O=C(O)CCCCCCCCCCCCN*; Val(3-OH) = CC(C)(O)[C@H](N)C(=O)O; Cha = N[C@@H](CC1CCCCC1)C(=O)O; Cit = NC(=O)NCCC[C@H](N)C(=O)O; Dap(Me) = CNC[C@H](N)C(=O)O; Carboxymethyl = O=C(O)C*; Orn = NCCC[C@H](N)C(=O)O; Aun = NCCCCCCCCCCC(=O)O; Dab = NCC[C@H](N)C(=O)O; Nva = CCC[C@H](N)C(=O)O; Dap = NC[C@H](N)C(=O)O; AEEA = NCCOCCOCC(=O)O

The experiment deals with T1, PD-1/PD-L1 interaction (PE-labeled human PD-L1-Ig binding to Jurkat cell line over-expressing human PD-1) (Homo sapiens, UniProt Q15116).
T1 construct: expressed in transfected cells; host or cells: Jurkat
T1 sequence (Q15116 25-288): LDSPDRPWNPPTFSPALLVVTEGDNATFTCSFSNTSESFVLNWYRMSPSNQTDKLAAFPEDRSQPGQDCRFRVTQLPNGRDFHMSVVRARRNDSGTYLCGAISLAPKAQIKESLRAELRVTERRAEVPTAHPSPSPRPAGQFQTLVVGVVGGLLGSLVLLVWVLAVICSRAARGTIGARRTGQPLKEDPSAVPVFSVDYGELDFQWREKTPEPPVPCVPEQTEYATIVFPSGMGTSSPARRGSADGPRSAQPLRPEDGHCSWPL
As to the kind of experiment: Jurkat-PD-1 Cell Binding High-Content Screening Assay (CBA). The class given is cell-based. The conditions noted are these: Jurkat cell line over-expressing human PD-1; PE-labeled PD-L1-Ig 20 nM final; read-out: Jurkat hPD1-PDL1 IC50. The method, boiled down: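 Jurkat cells over-expressing human PD-1 (8×10^3 per well, DMEM/10% FCS) preincubated with compound 2 h at 37° C, then PE-labeled human PD-L1-Ig (20 nM final) added for 1 h. Cells fixed with paraformaldehyde, Hoechst-stained, and bound fluorescence quantified by high-content imaging.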
Turning to `CCC[C@@H]1NC(=O)CSC[C@@H](C(=O)N[C@@H](CCN)C(=O)NCCOCCOCC(=O)NCCCCCCCCCCC(=O)O)NC(=O)[C@H](CO)NC(=O)[C@H](C(C)(C)O)NC(=O)[C@H](CC2CCCCC2)NC(=O)[C@H](CCN)NC(=O)[C@@H](CC(C)C)NC(=O)[C@H](CCCN)NC(=O)[C@H](Cc2ccc(OCC(=O)O)cc2)NC(=O)[C@H](Cc2ccc(-c3ccccc3)cc2)NC(=O)[C@H](Cc2ccc(OCC(=O)O)cc2)NC(=O)[C@H](Cc2cccc(C)c2)NC(=O)[C@H](CC(=O)O)NC(=O)[C@H](Cc2ccc(OCC(=O)O)cc2)NC1=O` [Compound 2246] ({CH2CO}-[Nva]Y(Carboxymethyl)D[Phe(3-Me)]Y(Carboxymethyl)[Bip]Y(Carboxymethyl)[Orn][dL][Dab][Cha][Val(3-OH)]SC[Dab][AEEA][Aun]-OH; thioether N-14), the IC50 was determined as 0.6 nM.
The same measure for `Cc1cccc(C[C@@H]2NC(=O)[C@H](CC(=O)O)NC(=O)[C@H](Cc3ccc(OCC(=O)O)cc3)NC(=O)[C@H](CN)NC(=O)CSC[C@@H](C(=O)N[C@@H](C)C(=O)N[C@@H](CC(=O)O)C(=O)NCCCCCCCCCCC(=O)O)NC(=O)[C@H]([C@@H](C)O)NC(=O)[C@H](C(C)C)NC(=O)[C@H](CC3CCCCC3)NC(=O)[C@H](CCN)NC(=O)[C@@H](CC(C)C)NC(=O)[C@H](CCCN)NC(=O)[C@H](CCCNC(N)=O)NC(=O)[C@H](Cc3ccc(-c4ccccc4)cc3)NC(=O)[C@H](C(C)C)NC2=O)c1` [Compound 1006] ({CH2CO}-[Dap]Y(Carboxymethyl)D[Phe(3-Me)]V[Bip][Cit][Orn][dL][Dab][Cha]VTCAD[Aun]-OH; thioether N-14): 9.2 nM; for `CC(C)C[C@H]1NC(=O)[C@H](CCCN)NC(=O)[C@H](Cc2ccc(C(=O)O)cc2)NC(=O)[C@H](Cc2ccc(-c3ccccc3)cc2)NC(=O)[C@H](Cc2ccc(C(=O)O)cc2)NC(=O)[C@H](Cc2cccc(C(F)(F)F)c2)NC(=O)[C@H](CC(=O)O)NC(=O)[C@H](Cc2ccc(OCC(=O)O)cc2)NC(=O)[C@H](CN2CCOCC2)NC(=O)CSC[C@@H](C(=O)N[C@@H](CCN)C(=O)NCCOCCOCC(=O)N[C@@H](CC(=O)NCCOCCOCC(=O)NCCCCCCCCCCCCC(=O)O)C(=O)O)NC(=O)[C@H](CO)NC(=O)[C@H](C(C)(C)O)NC(=O)[C@H](CC2CCCCC2)NC(=O)[C@H](CCN)NC1=O` [Compound 2941] ({CH2CO}-[Ala(morpholin-4-yl)]Y(Carboxymethyl)D[Phe(3-CF3)][Phe(4-COOH)][Bip][Phe(4-COOH)][Orn][dL][Dab][Cha][Val(3-OH)]SC[Dab][AEEA][βAsp][AEEA]-{NH(CH2)12COOH}; thioether N-14): 27.8 nM; for `Cc1cccc(C[C@@H]2NC(=O)[C@H](CC(=O)O)NC(=O)[C@H](Cc3ccc(OCC(=O)O)cc3)NC(=O)[C@H](CN)NC(=O)CSC[C@@H](C(=O)N[C@@H](CCCCN)C(=O)NCCCCCCCCCCC(=O)O)NC(=O)[C@H](CCCN)NC(=O)[C@H](C(C)C)NC(=O)[C@H](CC3CCCCC3)NC(=O)[C@H](CCN)NC(=O)[C@@H](CC(C)C)NC(=O)[C@H](CCCN)NC(=O)[C@H](Cc3ccc(O)cc3)NC(=O)[C@H](Cc3ccc(-c4ccccc4)cc3)NC(=O)[C@H](C(C)C)NC2=O)c1` [Compound 2590] ({CH2CO}-[Dap]Y(Carboxymethyl)D[Phe(3-Me)]V[Bip]Y[Orn][dL][Dab][Cha]V[Orn]CK[Aun]-OH; thioether N-14): 9.5 nM.
On to `CNC[C@H](NC(=O)[C@@H]1CSCC(=O)N[C@@H](CN)C(=O)N[C@@H](Cc2ccc(OCC(=O)O)cc2)C(=O)N[C@@H](CC(=O)O)C(=O)N[C@@H](Cc2cccc(C)c2)C(=O)N[C@@H](C(C)C)C(=O)N[C@@H](Cc2ccc(-c3ccccc3)cc2)C(=O)N[C@@H](CCCNC(N)=O)C(=O)N[C@@H](CCCN)C(=O)N[C@H](CC(C)C)C(=O)N[C@@H](CCN)C(=O)N[C@@H](CC2CCCCC2)C(=O)N[C@@H](C(C)C)C(=O)N[C@@H]([C@@H](C)O)C(=O)N1)C(=O)NCCCCCCCCCCC(=O)O` [Compound 2787] ({CH2CO}-[Dap]Y(Carboxymethyl)D[Phe(3-Me)]V[Bip][Cit][Orn][dL][Dab][Cha]VTC[Dap(Me)][Aun]-OH; thioether N-14), for which the IC50 was found to be 28.3 nM.
